Test results published in ChEMBL document CHEMBL5608186, “Design, synthesis and structure-activity relationships of novel non-ketolides: 9-Oxime clarithromycin featured with seven-to thirteen-atom-length diamine linkers at 3-OH” (Eur J Med Chem, 2024).
≈ marks a conversion by molar mass, not a printed value.

Key:
Format in all cases: functional
Staphylococcus aureus [1] = test: Bactericidal activity against methicillin-resistant Staphylococcus aureus PU 20 harboring c-ermA gene incubated for 16 to 20 hrs by CLSI based broth microdilution method; conditions: time 16-20 hrs
Staphylococcus aureus [2] = test: Antibacterial activity against methicillin-resistant Staphylococcus aureus PU 20 harboring c-ermA gene incubated for 16 to 20 hrs by CLSI based broth microdilution method; conditions: time 16-20 hrs
Staphylococcus aureus [3] = test: Selectivity ratio of MBC for methicillin-resistant Staphylococcus aureus PU 32 harboring i-ermA gene to MIC for methicillin-resistant Staphylococcus aureus PU 32 harboring i-ermA gene
Staphylococcus aureus [4] = test: Bactericidal activity against methicillin-resistant Staphylococcus aureus PU 32 harboring i-ermA gene incubated for 16 to 20 hrs by CLSI based broth microdilution method; conditions: time 16-20 hrs
Staphylococcus aureus [5] = test: Antibacterial activity against methicillin-resistant Staphylococcus aureus PU 32 harboring i-ermA gene incubated for 16 to 20 hrs by CLSI based broth microdilution method; conditions: time 16-20 hrs
Streptococcus pyogenes [6] = test: Selectivity ratio of MBC for Streptococcus pyogenes 01-968 harboring i-ermB gene to MIC for Streptococcus pyogenes 01-968 harboring i-ermB gene
Streptococcus pyogenes [7] = test: Bactericidal activity against Streptococcus pyogenes 01-968 harboring i-ermB gene incubated for 16 to 20 hrs by CLSI based broth microdilution method; conditions: time 16-20 hrs
Streptococcus pyogenes [8] = test: Antibacterial activity against Streptococcus pyogenes 01-968 harboring i-ermB gene incubated for 16 to 20 hrs by CLSI based broth microdilution method; conditions: time 16-20 hrs
Haemophilus influenzae [9] = test: Selectivity ratio of MBC for Haemophilus influenzae ATCC 49247 to MIC for Haemophilus influenzae ATCC 49247
Haemophilus influenzae [10] = test: Bactericidal activity against Haemophilus influenzae ATCC 49247 incubated for 16 to 20 hrs by CLSI based broth microdilution method; conditions: time 16-20 hrs
Haemophilus influenzae [11] = test: Antibacterial activity against Haemophilus influenzae ATCC 49247 incubated for 16 to 20 hrs by CLSI based broth microdilution method; conditions: time 16-20 hrs
Streptococcus pneumoniae [12] = test: Selectivity ratio of MBC for Streptococcus pneumoniae 07P390 harboring c-erm gene to MIC for Streptococcus pneumoniae 07P390 harboring c-erm gene
Streptococcus pneumoniae [13] = test: Bactericidal activity against Streptococcus pneumoniae 07P390 harboring c-erm gene incubated for 16 to 20 hrs by CLSI based broth microdilution method; conditions: time 16-20 hrs
Streptococcus pneumoniae [14] = test: Antibacterial activity against Streptococcus pneumoniae 07P390 harboring c-erm gene incubated for 16 to 20 hrs by CLSI based broth microdilution method; conditions: time 16-20 hrs
Streptococcus pneumoniae [15] = test: Selectivity ratio of MBC for Streptococcus pneumoniae PU 09 harboring mef gene to MIC for Streptococcus pneumoniae PU 09 harboring mef gene
Streptococcus pneumoniae [16] = test: Bactericidal activity against Streptococcus pneumoniae PU 09 harboring mef gene incubated for 16 to 20 hrs by CLSI based broth microdilution method; conditions: time 16-20 hrs
Streptococcus pneumoniae [17] = test: Selectivity ratio of MBC for Streptococcus pneumoniae ATCC 49619 to MIC for Streptococcus pneumoniae ATCC 49619
Streptococcus pneumoniae [18] = test: Antibacterial activity against Streptococcus pneumoniae PU 09 harboring mef gene incubated for 16 to 20 hrs by CLSI based broth microdilution method; conditions: time 16-20 hrs
Streptococcus pneumoniae [19] = test: Bactericidal activity against Streptococcus pneumoniae ATCC 49619 incubated for 16 to 20 hrs by CLSI based broth microdilution method; conditions: time 16-20 hrs
Streptococcus pneumoniae [20] = test: Antibacterial activity against Streptococcus pneumoniae ATCC 49619 incubated for 16 to 20 hrs by CLSI based broth microdilution method; conditions: time 16-20 hrs

Structure (SMILES) | MBC (Staphylococcus aureus [1]) | MIC (Staphylococcus aureus [2]) | Selectivity ratio (Staphylococcus aureus [3]) | MBC (Staphylococcus aureus [4]) | MIC (Staphylococcus aureus [5]) | Selectivity ratio (Streptococcus pyogenes [6]) | MBC (Streptococcus pyogenes [7]) | MIC (Streptococcus pyogenes [8]) | Selectivity ratio (Haemophilus influenzae [9]) | MBC (Haemophilus influenzae [10]) | MIC (Haemophilus influenzae [11]) | Selectivity ratio (Streptococcus pneumoniae [12]) | MBC (Streptococcus pneumoniae [13]) | MIC (Streptococcus pneumoniae [14]) | Selectivity ratio (Streptococcus pneumoniae [15]) | MBC (Streptococcus pneumoniae [16]) | Selectivity ratio (Streptococcus pneumoniae [17]) | MIC (Streptococcus pneumoniae [18]) | MBC (Streptococcus pneumoniae [19]) | MIC (Streptococcus pneumoniae [20])
CC[C@H]1OC(=O)[C@H](C)[C@@H](OC(=O)CCN2CCN(c3cc4c(cc3F)c(=O)c(C(=O)O)cn4C3CC3)CC2)[C@H](C)[C@@H](O[C@@H]2O[C@H](C)C[C@H](N(C)C)[C@H]2O)[C@](C)(OC)C[C@@H](C)/C(=N\OCC#Cc2cncc(C(=O)NC)c2)[C@H](C)[C@H]2OC(=O)O[C@@]21C | > 256 µg/mL | > 256 µg/mL | >4 | > 256 µg/mL | 64 µg/mL (≈ 53.9 µM) | >8 | > 128 µg/mL | 16 µg/mL (≈ 13.5 µM) | 1 | 4 µg/mL (≈ 3.37 µM) | 4 µg/mL (≈ 3.37 µM) | 8 | 32 µg/mL (≈ 26.9 µM) | 4 µg/mL (≈ 3.37 µM) | 4 | 0.5 µg/mL (≈ 0.421 µM) | 8 | 0.12 µg/mL (≈ 0.101 µM) | 0.25 µg/mL (≈ 0.21 µM) | 0.03 µg/mL (≈ 0.0252 µM)
CC[C@H]1OC(=O)[C@H](C)[C@@H](OC(=O)CCNCCCCNc2cc3c(cc2F)c(=O)c(C(=O)O)cn3C2CC2)[C@H](C)[C@@H](O[C@@H]2O[C@H](C)C[C@H](N(C)C)[C@H]2O)[C@](C)(OC)C[C@@H](C)/C(=N\OC)[C@H](C)[C@H]2OC(=O)O[C@@]21C | > 256 µg/mL | 128 µg/mL (≈ 124 µM) | 2 | 8 µg/mL (≈ 7.75 µM) | 4 µg/mL (≈ 3.88 µM) | 2 | 0.016 µg/mL (≈ 0.0155 µM) | ≤ 0.008 µg/mL | 2 | 32 µg/mL (≈ 31 µM) | 16 µg/mL (≈ 15.5 µM) | 2 | 16 µg/mL (≈ 15.5 µM) | 8 µg/mL (≈ 7.75 µM) | 1 | 0.5 µg/mL (≈ 0.484 µM) | 2 | 0.5 µg/mL (≈ 0.484 µM) | 0.125 µg/mL (≈ 0.121 µM) | 0.062 µg/mL (≈ 0.0601 µM)
CC[C@H]1OC(=O)[C@H](C)[C@@H](OC(=O)CCNCCCCNc2cc3c(cc2F)c(=O)c(C(=O)O)cn3C2CC2)[C@H](C)[C@@H](O[C@@H]2O[C@H](C)C[C@H](N(C)C)[C@H]2O)[C@](C)(OC)C[C@@H](C)/C(=N\OCC#Cc2cncc(NC(C)=O)c2)[C@H](C)[C@H]2OC(=O)O[C@@]21C | > 256 µg/mL | > 256 µg/mL | 2 | 64 µg/mL (≈ 53.8 µM) | 32 µg/mL (≈ 26.9 µM) | >8 | > 4 µg/mL | 0.5 µg/mL (≈ 0.42 µM) | 1 | 4 µg/mL (≈ 3.36 µM) | 4 µg/mL (≈ 3.36 µM) | 8 | 0.5 µg/mL (≈ 0.42 µM) | 0.06 µg/mL (≈ 0.0504 µM) | 1 | 0.03 µg/mL (≈ 0.0252 µM) | 1 | 0.03 µg/mL (≈ 0.0252 µM) | 0.016 µg/mL (≈ 0.0134 µM) | 0.016 µg/mL (≈ 0.0134 µM)
CC[C@H]1OC(=O)[C@H](C)[C@@H](OC(=O)CCNCCCCCCNc2cc3c(cc2F)c(=O)c(C(=O)O)cn3C2CC2)[C@H](C)[C@@H](O[C@@H]2O[C@H](C)C[C@H](N(C)C)[C@H]2O)[C@](C)(OC)C[C@@H](C)/C(=N\OC)[C@H](C)[C@H]2OC(=O)O[C@@]21C | > 256 µg/mL | 128 µg/mL (≈ 121 µM) | 4 | 16 µg/mL (≈ 15.1 µM) | 4 µg/mL (≈ 3.77 µM) | >8 | > 0.062 µg/mL | ≤ 0.008 µg/mL | 1 | 256 µg/mL (≈ 241 µM) | 256 µg/mL (≈ 241 µM) | 4 | 4 µg/mL (≈ 3.77 µM) | 1 µg/mL (≈ 0.943 µM) | 2 | 1 µg/mL (≈ 0.943 µM) | 1 | 0.5 µg/mL (≈ 0.472 µM) | 0.062 µg/mL (≈ 0.0585 µM) | 0.062 µg/mL (≈ 0.0585 µM)
CC[C@H]1OC(=O)[C@H](C)[C@@H](OC(=O)CCNCCCCNc2cc3c(cc2F)c(=O)c(C(=O)O)cn3C2CC2)[C@H](C)[C@@H](O[C@@H]2O[C@H](C)C[C@H](N(C)C)[C@H]2O)[C@](C)(OC)C[C@@H](C)/C(=N\OC/C=C/c2cncc(C(N)=O)c2)[C@H](C)[C@H]2OC(=O)O[C@@]21C | > 256 µg/mL | > 256 µg/mL | 1 | 32 µg/mL (≈ 27.2 µM) | 32 µg/mL (≈ 27.2 µM) | >8 | > 2 µg/mL | 0.25 µg/mL (≈ 0.212 µM) | 1 | 16 µg/mL (≈ 13.6 µM) | 16 µg/mL (≈ 13.6 µM) | 2 | 0.25 µg/mL (≈ 0.212 µM) | 0.12 µg/mL (≈ 0.102 µM) |  | 0.008 µg/mL (≈ 0.00679 µM) | >=1 | ≤ 0.008 µg/mL | 0.008 µg/mL (≈ 0.00679 µM) | ≤ 0.008 µg/mL
CC[C@H]1OC(=O)[C@H](C)[C@@H](OC(=O)CCNCCCCCCCNc2cc3c(cc2F)c(=O)c(C(=O)O)cn3C2CC2)[C@H](C)[C@@H](O[C@@H]2O[C@H](C)C[C@H](N(C)C)[C@H]2O)[C@](C)(OC)C[C@@H](C)/C(=N\OC)[C@H](C)[C@H]2OC(=O)O[C@@]21C | > 256 µg/mL | 128 µg/mL (≈ 119 µM) | 8 | 16 µg/mL (≈ 14.9 µM) | 2 µg/mL (≈ 1.86 µM) | 8 | 0.125 µg/mL (≈ 0.116 µM) | 0.016 µg/mL (≈ 0.0149 µM) | 1 | 256 µg/mL (≈ 238 µM) | 256 µg/mL (≈ 238 µM) | 2 | 16 µg/mL (≈ 14.9 µM) | 8 µg/mL (≈ 7.45 µM) | 1 | 2 µg/mL (≈ 1.86 µM) | 2 | 2 µg/mL (≈ 1.86 µM) | 0.25 µg/mL (≈ 0.233 µM) | 0.125 µg/mL (≈ 0.116 µM)
